According to patent US11401270B2, “Alcoxyamino derivatives for treating pain and pain related conditions” (ESTEVE PHARMACEUTICALS, S.A., priority 2017, dated 2022):
Where two headings read alike, the source gives them in different places.

What was measured:
[1] = biological target: Human norepinephrine transporter (NET) (Homo sapiens (Human), UniProt P23975); experiment: Binding Assay to Human Norepinephrine Transporter (NET); conditions: Table 2, dual compounds; human NET enriched membranes, 5 nM [3H]-Nisoxetin; read-out: Ki(nM) NET Hum
Experimental: Binding Assay to Human Norepinephrine Transporter (NET).
Human norepinephrine transporter (NET) enriched membranes (5 μg) were incubated with 5 nM of radiolabeled [3H]-Nisoxetin in assay buffer containing 50 mM Tris-HCl, 120 mM NaCl, 5 mM KCl, pH 7.4.
(§1) NSB (non specific binding) was measured by adding 10 μM desipramine. The binding of the test compound was measured in five different concentrations. After 60 min incubation at 4° C., binding reaction was terminated by filtering through Multiscreen GF/C (Millipore) presoaked in 0.5% polyethyleneimine in Vacuum Manifold Station, followed by 3 washes with ice-cold filtration buffer containing 50 mM Tris-HCl, 0.9% NaCl, pH 7.4.
(§2) Filter plates were dried at 60° C. for 1 hour and 30 μl of scintillation cocktail were added to each well before radioactivity reading.

[2] = biological target: Human α2δ-1 subunit of Cav2.2 calcium channel (Homo sapiens (Human), UniProt P54289); experiment: Binding Assay to Human α2δ-1 Subunit of Cav2.2 Calcium Channel; conditions: human α2δ-1 enriched membranes, 15 nM [3H]-Gabapentin, read-out: Ki(nM) alpha2delta Hum
Experimental: Binding Assay to Human α2δ-1 Subunit of Cav2.2 Calcium Channel.
as §1, with “pregabalin.” for “desipramine.”, “27°” for “4°”, “Tris-HCl,” for “Tris-HCl, 0.9% NaCl,”
as §2

Human α2δ-1 subunit of Cav2.2 calcium channel, sequence (P54289 25-1103): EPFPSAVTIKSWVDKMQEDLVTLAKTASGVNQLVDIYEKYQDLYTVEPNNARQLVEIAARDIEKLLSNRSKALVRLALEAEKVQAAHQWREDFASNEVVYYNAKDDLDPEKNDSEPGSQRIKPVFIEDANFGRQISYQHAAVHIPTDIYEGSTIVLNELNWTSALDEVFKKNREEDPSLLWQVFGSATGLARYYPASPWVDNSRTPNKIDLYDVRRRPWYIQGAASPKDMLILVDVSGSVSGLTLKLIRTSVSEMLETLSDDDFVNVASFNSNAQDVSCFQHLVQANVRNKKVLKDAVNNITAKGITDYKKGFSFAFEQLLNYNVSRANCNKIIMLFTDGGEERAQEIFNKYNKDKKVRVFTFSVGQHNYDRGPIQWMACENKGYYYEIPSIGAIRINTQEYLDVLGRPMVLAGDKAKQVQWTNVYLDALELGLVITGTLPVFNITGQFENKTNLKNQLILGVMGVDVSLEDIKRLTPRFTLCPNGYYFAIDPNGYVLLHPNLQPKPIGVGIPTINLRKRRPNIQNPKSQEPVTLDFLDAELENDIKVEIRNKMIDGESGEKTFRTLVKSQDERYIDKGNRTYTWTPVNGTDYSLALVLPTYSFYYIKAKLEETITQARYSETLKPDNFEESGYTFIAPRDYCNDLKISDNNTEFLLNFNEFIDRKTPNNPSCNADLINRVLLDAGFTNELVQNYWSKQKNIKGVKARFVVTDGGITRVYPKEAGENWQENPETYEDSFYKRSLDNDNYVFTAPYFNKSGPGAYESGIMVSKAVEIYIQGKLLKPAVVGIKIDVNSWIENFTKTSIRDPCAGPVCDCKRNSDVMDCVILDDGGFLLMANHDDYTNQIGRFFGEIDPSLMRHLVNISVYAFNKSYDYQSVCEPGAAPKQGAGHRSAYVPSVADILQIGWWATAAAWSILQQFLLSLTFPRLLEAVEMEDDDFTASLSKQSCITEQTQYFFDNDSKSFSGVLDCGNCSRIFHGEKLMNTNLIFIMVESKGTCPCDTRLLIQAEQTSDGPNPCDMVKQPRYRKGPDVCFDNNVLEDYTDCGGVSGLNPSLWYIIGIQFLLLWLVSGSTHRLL
Human norepinephrine transporter (NET), sequence (P23975 whole entry): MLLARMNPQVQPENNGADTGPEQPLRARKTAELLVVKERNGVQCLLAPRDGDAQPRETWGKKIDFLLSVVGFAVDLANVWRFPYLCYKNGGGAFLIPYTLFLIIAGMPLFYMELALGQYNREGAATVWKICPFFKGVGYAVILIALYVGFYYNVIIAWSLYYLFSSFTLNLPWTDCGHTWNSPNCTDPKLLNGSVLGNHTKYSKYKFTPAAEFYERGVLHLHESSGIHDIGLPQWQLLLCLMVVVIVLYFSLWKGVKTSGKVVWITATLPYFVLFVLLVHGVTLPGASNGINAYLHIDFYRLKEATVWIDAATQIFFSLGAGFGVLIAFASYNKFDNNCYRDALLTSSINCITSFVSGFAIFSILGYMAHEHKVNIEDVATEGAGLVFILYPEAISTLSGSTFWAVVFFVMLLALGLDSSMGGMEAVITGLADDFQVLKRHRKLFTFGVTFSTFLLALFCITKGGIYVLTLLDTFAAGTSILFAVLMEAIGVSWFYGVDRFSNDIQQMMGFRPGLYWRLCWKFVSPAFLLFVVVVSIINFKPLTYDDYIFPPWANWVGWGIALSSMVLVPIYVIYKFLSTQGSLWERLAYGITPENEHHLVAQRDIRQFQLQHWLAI

Row | SMILES | Ki [1] [nM] | Ki ([2]; Table 1) [nM] | Ki ([2]; Table 2, dual compounds) [nM]
1 | CNCCC(Oc1cccc(C(=O)N2CCCN(C)CC2)c1)c1ccccc1 (centres unmarked) [Example 3, (4-Methyl-1,4-diazepan-1-yl)(3-(3-(methylamino)-1-phenylpropoxy)phenyl)methanone] | 100 to 500 | 500 to 3000 | 500 to 3000
2 | CNCCC(OCc1cccc(N2CCCN(C)CC2)c1)c1ccccc1 (centres unmarked) [Example 6, N-methyl-3-((3-(4-methyl-1,4-diazepan-1-yl)benzyl)oxy)-3-phenylpropan-1-amine] | 100 to 500 | 500 to 3000 | 500 to 3000
3 | CNCCC(OCc1cccc(N2CCN(C)c3ccccc3C2)c1)c1ccccc1 (centres unmarked) [Example 7, N-methyl-3-((3-(1-methyl-1,2,3,5-tetrahydro-4H-benzo[e][1,4]diazepin-4-yl)benzyl)oxy)-3-phenylpropan-1-amine] | 500 to 1000 | 500 to 3000 | 500 to 3000
4 | CNCCC(OCc1cccc(N2CCCN(C)CC2)c1)c1cccs1 (centres unmarked) [Example 10, N-methyl-3-((3-(4-methyl-1,4-diazepan-1-yl)benzyl)oxy)-3-(thiophen-2-yl)propan-1-amine] | 500 to 1000 | 500 to 3000 | 500 to 3000
5 | CCNc1ccc2c(n1)N(C)CCN(c1cccc(COC(CCNC)c3ccccc3)c1)C2=O (centres unmarked) [Example 29, 8-(Ethylamino)-1-methyl-4-(3-((3-(methylamino)-1-phenylpropoxy)methyl)phenyl)-1,2,3,4-tetrahydro-5H-pyrido[2,3-e][1,4]diazepin-5-one] | 500 to 1000 | 500 to 3000 | 500 to 3000
6 | CNCCC(OCc1cccc(N2CCN(C)CCC2=O)c1)c1ccccc1 (centres unmarked) [Example 34, 1-Methyl-4-(3-((3-(methylamino)-1-phenylpropoxy)methyl)phenyl)-1,4-diazepan-5-one] | 100 to 500 | 500 to 3000 | 500 to 3000
7 | CNCCC(OCc1cccc(N2CCNCCC2=O)c1)c1ccccc1 (centres unmarked) [Example 37, 4-(3-((3-(Methylamino)-1-phenylpropoxy)methyl)phenyl)-1,4-diazepan-5-one] | 100 to 500 | 500 to 3000 | 500 to 3000
8 | CCN1CCC(=O)N(c2cccc(OC(CCNC)c3cccs3)c2)CC1 (centres unmarked) [Example 58, 1-Ethyl-4-(3-(3-(methylamino)-1-(thiophen-2-yl)propoxy)phenyl)-1,4-diazepan-5-one] | 100 to 500 | 500 to 3000 | 500 to 3000
9 | CNCCC(Oc1cccc(N2CCN(C(C)C)CCC2=O)c1)c1cccs1 (centres unmarked) [Example 60, 1-Isopropyl-4-(3-(3-(methylamino)-1-(thiophen-2-yl)propoxy)phenyl)-1,4-diazepan-5-one] | 500 to 1000 | 500 to 3000 | 500 to 3000
10 | CNCC[C@H](Oc1cccc(N2CCN(C(C)C)CCC2=O)c1)c1cccs1 [Example 66, (S)-1-isopropyl-4-(3-(3-(methylamino)-1-(thiophen-2-yl)propoxy)phenyl)-1,4-diazepan-5-one] | 100 to 500 | 500 to 3000 | 500 to 3000
11 | CNCCC(Oc1cccc(N2CCN(C)c3nc(N(C)C)ccc3C2=O)c1)c1cccs1 (centres unmarked) [Example 70, 8-(Dimethylamino)-1-methyl-4-(3-(3-(methylamino)-1-(thiophen-2-yl)propoxy)phenyl)-1,2,3,4-tetrahydro-5H-pyrido[2,3-e][1,4]diazepin-5-one] | 100 to 500 | 500 to 3000 | 500 to 3000
12 | CNCC[C@@H](Oc1cccc(N2CCN(C(C)C)CCC2=O)c1)c1ccsc1 [Example 76, (R)-1-isopropyl-4-(3-(3-(methylamino)-1-(thiophen-3-yl)propoxy)phenyl)-1,4-diazepan-5-one] | < 100 | 500 to 3000 | 500 to 3000
13 | CNCCC(OCc1cccc(N2CCN(C)CCC2=O)c1)c1cccs1 (centres unmarked) [Example 84, 1-Methyl-4-(3-((3-(methylamino)-1-(thiophen-2-yl)propoxy)methyl)phenyl)-1,4-diazepan-5-one] | 100 to 500 | 500 to 3000 | 500 to 3000
14 | CCNC[C@H]1CC(=O)N(c2cccc(O[C@@H](CCNC)c3cccs3)c2)CCN1C [Example 86, (R)-7-((ethylamino)methyl)-1-methyl-4-(3-((S)-3-(methylamino)-1-(thiophen-2-yl)propoxy)phenyl)-1,4-diazepan-5-one] | 100 to 500 | 500 to 3000 | 500 to 3000
15 | CNCC[C@@H](Oc1ccc(CN2CCN(C)c3ncccc3C2=O)c(F)c1)c1cccc(F)c1 [Example 135, (R)-4-(2-fluoro-4-(1-(3-fiuorophenyl)-3-(methylamino)propoxy)benzyl)-1-methyl-1,2,3,4-tetrahydro-5H-pyrido[2,3-e][1,4]diazepin-5-one] |  | 500 to 3000 | 
16 | CNCC[C@H](Oc1ccc(CN2CCN(C)c3c(ccnc3OC)C2=O)c(F)c1)c1ccccc1 [Example 146, (S)-4-(2-fluoro-4-(3-(methylamino)-1-phenylpropoxy)benzyl)-9-methoxy-1-methyl-1,2,3,4-tetrahydro-5H-pyrido[3,4-e][1,4]diazepin-5-one] |  | > 3000 | 
17 | CCNc1ccc2c(n1)N(C)CCN(Cc1ccc(O[C@H](CCNC)c3cccc(F)c3)cc1F)C2=O [Example 147, (R)-8-(ethylamino)-4-(2-fluoro-4-(1-(3-fluorophenyl)-3-(methylamino)propoxy)benzyl)-1-methyl-1,2,3,4-tetrahydro-5H-pyrido[2,3-e][1,4]diazepin-5-one] |  | > 3000 | 
18 | CNCC[C@@H](Oc1ccc(CN2CCN(C)c3ncccc3C2=O)cc1)c1cccc(F)c1 [Example 150, (R)-(4-(1-(3-fluorophenyl)-3-(methylamino)propoxy)benzyl)-1-methyl-1,2,3,4-tetrahydro-5H-pyrido[2,3-e][1,4]diazepin-5-one] |  | 500 to 3000 | 500 to 3000

Other lines, results leading:

Row | Ki [1] [nM] | Ki ([2]; Table 1) [nM] | Ki ([2]; Table 2, dual compounds) [nM] | SMILES
19 | 500 to 1000 | 100 to 500 | 100 to 500 | CNCCC(Oc1cccc(CN2CCN(C)c3ccccc3C2)c1)c1cccs1 (centres unmarked) [Example 1, N-methyl-3-(3-((1-methyl-1,2,3,5-tetrahydro-4H-benzo[e][1,4]diazepin-4-yl)methyl)phenoxy)-3-(thiophen-2-yl)propan-1-amine]
20 | 500 to 1000 | 100 to 500 | 100 to 500 | CNCC[C@@H](Oc1cccc(N2CCN(C(C)C)CCC2=O)c1)c1cccs1 [Example 67, (R)-1-isopropyl-4-(3-(3-(methylamino)-1-(thiophen-2-yl)propoxy)phenyl)-1,4-diazepan-5-one]
21 | 100 to 500 | 100 to 500 | 100 to 500 | CNCCC(Oc1cccc(N2CCN(C(C)C)CCC2=O)c1)c1ccsc1 (centres unmarked) [Example 75, 1-Isopropyl-4-(3-(3-(methylamino)-1-(thiophen-3-yl)propoxy)phenyl)-1,4-diazepan-5-one]
22 | 100 to 500 | 100 to 500 | 100 to 500 | CNCC[C@H](Oc1cccc(N2CCN(C(C)C)CCC2=O)c1)c1ccsc1 [Example 77, (S)-1-isopropyl-4-(3-(3-(methylamino)-1-(thiophen-3-yl)propoxy)phenyl)-1,4-diazepan-5-one]
23 | 100 to 500 | 100 to 500 | 100 to 500 | CNCCC(Oc1cccc(N2CCN(C)c3nc(C)ccc3C2=O)c1)c1ccsc1 (centres unmarked) [Example 78, 1,8-Dimethyl-4-(3-(3-(methylamino)-1-(thiophen-3-yl)propoxy)phenyl)-1,2.3,4-tetrahydro-5H-pyrido[2,3-e][1,4]diazepin-5-one]
24 | < 100 | 100 to 500 | 100 to 500 | CNCC[C@H](Oc1cccc(N2CCN(C)c3nc(C)ccc3C2=O)c1)c1ccsc1 [Example 80, (S)-1,8-dimethyl-4-(3-(3-(methylamino)-1-(thiophen-3-yl)propoxy)phenyl)-1,2,3,4-tetrahydro-5H-pyrido[2,3-e][1,4]diazepin-5-one]
25 | 500 to 1000 | 100 to 500 | 100 to 500 | CNCC[C@H](Oc1cccc(N2CCN(C)c3nc(C(F)(F)F)ccc3C2=O)c1)c1cccs1 [Example 81, (S)-1-methyl-4-(3-(3-(methylamino)-1-(thiophen-2-yl)propoxy)phenyl)-8-(trifiuoromethyl)-1.2.3,4-tetrahydro-5H-pyrido[2.3-e][1,4]diazepin-5-one]
26 | 100 to 500 | 100 to 500 | 100 to 500 | CNCC[C@H](Oc1cccc(N2CCN(C)c3nc(N)ccc3C2=O)c1)c1cccs1 [Example 83, (S)-8-amino-1-methyl-4-(3-(3-(methylamino)-1-(thiophen-2-yl)propoxy)phenyl)-1,2,3,4-tetrahydro-5H-pyrido[2,3-e][1,4]diazepin-5-one]
27 | 100 to 500 | < 100 | < 100 | CNCC[C@H](Oc1ccc(CN2CCN(C)c3ncccc3C2=O)cc1)c1cccs1 [Example 90, (S)-1-methyl-4-(4-(3-(methylamino)-1-(thiophen-2-yl)propoxy)benzyl)-1,2,3,4-tetrahydro-5H-pyrido[2,3-e][1,4]diazepin-5-one]
28 | 100 to 500 | 100 to 500 | 100 to 500 | CNCC[C@H](Oc1ccc(CN2CCN(C)c3nc(C)ccc3C2=O)cc1)c1cccs1 [Example 91, (S)-1,8-dimethyl-4-(4-(3-(methylamino)-1-(thiophen-2-yl)propoxy)benzyl)-1,2,3,4-tetrahydro-5H-pyrido[2,3-e][1,4]diazepin-5-one]
